From patent publication US12011444B2, “N-substituted indole derivatives as PGE2 receptor modulators” (Idorsia Pharmaceuticals Ltd, priority 2015, dated 2024) come the findings set out here.

For experiment [1], the target named is PTGER2 (EP2) (Homo sapiens (Human), UniProt P43116). Kind of experiment: hEP2 b-arrestin assay (PathHunter HEK 293 PTGER2 b-arrestin cells). In kind it is cell-based. The conditions noted are these: antagonistic activity on hEP2; mean where measured multiple times. The procedure, abridged: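 HEK293 cells expressing ProLink-tagged EP2 and EA-fused β-arrestin 2 (enzyme fragment complementation) were seeded 24 h, pre-incubated with compound 15 min at 37 °C, then stimulated with 5 μM PGE2 (final) for 120 min.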

Experiment [2] concerns the target PTRGER4 (EP4) (Homo sapiens (Human), UniProt P35408). In words: hEP4 b-arrestin assay (PathHunter HEK 293 PTGER4 b-arrestin cells). In kind it is cell-based. The conditions noted are these: antagonistic activity on hEP4; mean where measured multiple times. The procedure, abridged: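 Stably transfected HEK293 cells carrying EP4–ProLink and β-arrestin 2–EA (β-gal fragment complementation), pre-incubated with compound 15 min at 37 °C, then stimulated with PGE2 (20 nM final) for 120 min at 37 °C. Chemiluminescence read after 1 h detection reagent at room temperature; activity per concentration expressed as percent of DMSO control.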

Sequence of PTGER2 (EP2) (P43116 whole entry, the tested form may be a part): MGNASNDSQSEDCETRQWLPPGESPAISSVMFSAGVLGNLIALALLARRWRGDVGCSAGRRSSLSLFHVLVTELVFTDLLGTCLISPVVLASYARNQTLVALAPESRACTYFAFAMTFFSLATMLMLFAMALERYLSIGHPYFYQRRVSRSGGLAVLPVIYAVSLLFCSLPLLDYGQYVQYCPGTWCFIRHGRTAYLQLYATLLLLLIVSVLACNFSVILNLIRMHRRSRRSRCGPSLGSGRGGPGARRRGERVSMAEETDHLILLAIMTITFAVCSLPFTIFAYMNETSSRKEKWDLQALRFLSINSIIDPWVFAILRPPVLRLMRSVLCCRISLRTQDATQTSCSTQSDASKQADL
Sequence of PTRGER4 (EP4) (P35408 whole entry, looked up, the tested form may be a part): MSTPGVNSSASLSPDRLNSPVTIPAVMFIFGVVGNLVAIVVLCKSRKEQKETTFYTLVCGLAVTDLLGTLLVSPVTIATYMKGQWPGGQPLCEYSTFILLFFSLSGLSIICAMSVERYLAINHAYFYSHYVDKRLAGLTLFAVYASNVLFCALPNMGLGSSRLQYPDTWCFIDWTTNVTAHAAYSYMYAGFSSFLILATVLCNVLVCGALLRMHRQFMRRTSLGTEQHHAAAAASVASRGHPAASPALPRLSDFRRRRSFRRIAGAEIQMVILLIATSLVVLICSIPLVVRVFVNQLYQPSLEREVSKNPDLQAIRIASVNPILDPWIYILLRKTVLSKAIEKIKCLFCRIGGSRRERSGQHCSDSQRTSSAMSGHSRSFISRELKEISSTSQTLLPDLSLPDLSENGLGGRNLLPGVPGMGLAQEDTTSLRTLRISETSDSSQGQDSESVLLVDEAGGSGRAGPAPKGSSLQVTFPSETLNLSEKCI

As usually defined, the IC50 is the concentration that gives 50% inhibition. High values mean weaker potency, low ones greater potency. As to `CCc1cc(-c2cc(NCCn3c(C)cc4c5c(cc(Cl)c43)OCO5)ncn2)ccc1C(=O)O` [compound 295, 4-{6-[2-(5-Chloro-7-methyl-[1,3]dioxolo[4,5-e]indol-6-yl)-ethylamino]-pyrimidin-4-yl}-2-ethyl-benzoic acid], the IC50 in experiment [1] came to 12 nM; in experiment [2] it was 950 nM.

With `COc1ccc(F)c2c1cc(C)n2CCNc1cc(-c2ccc(C(=O)O)c(C3CC3)c2)ncn1` [compound 296, 2-Cyclopropyl-4-{6-[2-(7-fluoro-4-methoxy-2-methyl-indol-1-yl)-ethylamino]-pyrimidin-4-yl}-benzoic acid], the IC50 in experiment [1] came to 7 nM; in experiment [2], 259 nM.

Take `Cc1cc(F)cc2c1cc(C)n2CCNc1cc(-c2ccc3[nH]c(C(F)(F)F)nc3c2)ncn1` [compound 297]: the half-inhibitory concentration (IC50) was 539 nM in experiment [1] and 814 nM in experiment [2].

`Cc1sc(N)nc1-c1ccc(-c2cc(NCCn3c(C)cc4c(C)ccc(F)c43)ncn2)cc1` [compound 298, {6-[4-(2-Amino-5-methyl-thiazol-4-yl)-phenyl]-pyrimidin-4-yl}-[2-(7-fluoro-2,4-dimethyl-indol-1-yl)-ethyl]-amine]: the IC50 in experiment [1] is 19 nM; in experiment [2] it was 249 nM.

As for `COc1cc(F)c(F)c2c1cc(C)n2CCNc1cc(-c2ccc(-c3ncno3)cc2)ncn1` [compound 299, [2-(6,7-Difluoro-4-methoxy-2-methyl-indol-1-yl)-ethyl]-[6-(4-[1,2,4]oxadiazol-5-yl-phenyl)-pyrimidin-4-yl]-amine], the IC50 in experiment [1] stood at 10 nM; in experiment [2] it was 81 nM.

In the case of `COc1cccc2c1cc(C)n2CCNc1cc(-c2ccc(-c3nnc(C)o3)c(F)c2)ncn1` [compound 300, {6-[3-Fluoro-4-(5-methyl-[1,3,4]oxadiazol-2-yl)-phenyl]-pyrimidin-4-yl}-[2-(4-methoxy-2-methyl-indol-1-yl)-ethyl]-amine], the IC50 was determined as 40 nM in experiment [1] and 494 nM in experiment [2].

For the compound `COc1cc(F)cc2c1cc(C)n2CCNc1cc(-c2ccc(-c3nc(C)no3)cc2)ncn1` [compound 301], the IC50 in experiment [1] was 103 nM; in experiment [2] it was 358 nM.

`COc1ccc(F)c2c1cc(C)n2CCNc1cc(-c2ccc(-c3nc(C)no3)cc2)ncn1` [compound 302, [2-(7-Fluoro-4-methoxy-2-methyl-indol-1-yl)-ethyl]-{6-[4-(3-methyl-[1,2,4]oxadiazol-5-yl)-phenyl]-pyrimidin-4-yl}-amine]: the IC50 in experiment [1] stood at 33 nM; in experiment [2] it was 145 nM.

Regarding `COc1ccc(F)c2c1cc(C)n2CCNc1cc(-c2ccc(-c3noc(C)n3)cc2)ncn1` [compound 303, [2-(7-Fluoro-4-methoxy-2-methyl-indol-1-yl)-ethyl]-{6-[4-(5-methyl-[1,2,4]oxadiazol-3-yl)-phenyl]-pyrimidin-4-yl}-amine], the IC50 is 33 nM in experiment [1] and 322 nM in experiment [2].

As to `COc1ccc(F)c2c1cc(C)n2CCNc1cc(-c2ccc(-c3cc(N)no3)cc2)ncn1` [compound 304, {6-[4-(3-Amino-isoxazol-5-yl)-phenyl]-pyrimidin-4-yl}-[2-(7-fluoro-4-methoxy-2-methyl-indol-1-yl)-ethyl]-amine], the IC50 turned out to be 2 nM in experiment [1] and 12 nM in experiment [2].

Consider `Cc1nnc(-c2ccc(-c3cc(NCCn4c(C)cc5c(C)ccc(F)c54)ncn3)cc2F)o1` [compound 306], for which the IC50 came out at 408 nM in experiment [1] and 207 nM in experiment [2].

In the case of `COc1cc(F)c(F)c2c1cc(C)n2CCNc1cc(-c2ccc(-c3c[nH]cn3)cc2)ncn1` [compound 307, [2-(6,7-Difluoro-4-methoxy-2-methyl-indol-1-yl)-ethyl]-{6-[4-(1H-imidazol-4-yl)-phenyl]-pyrimidin-4-yl}-amine], the figures for the IC50 in experiment [1] and in experiment [2] were 25 nM and 47 nM, respectively.

Consider `COc1cccc2c1cc(C)n2CCNc1cc(-c2ccc(Cn3cccn3)c(F)c2)ncn1` [compound 308], for which the half-inhibitory concentration (IC50) in experiment [1] was 383 nM; in experiment [2] it was 429 nM.

Consider `COc1cc(F)cc2c1cc(C)n2CCNc1cc(-c2ccc(-c3ccn(C)n3)cc2)ncn1` [compound 309, [2-(6-Fluoro-4-methoxy-2-methyl-indol-1-yl)-ethyl]-{6-[4-(1-methyl-1H-pyrazol-3-yl)-phenyl]-pyrimidin-4-yl}-amine], for which the results for the IC50 in experiment [1] and in experiment [2] were 11 nM and 86 nM, respectively.

Take `COc1ccc(F)c2c1cc(C)n2CCNc1cc(-c2ccc(-n3ccc(C)n3)cc2)ncn1` [compound 310, [2-(7-Fluoro-4-methoxy-2-methyl-indol-1-yl)-ethyl]-{6-[4-(3-methyl-pyrazol-1-yl)-phenyl]-pyrimidin-4-yl}-amine]: the IC50 in experiment [1] worked out at 39 nM; in experiment [2], 415 nM.

Consider `COc1cccc2c1cc(C)n2CCNc1cc(-c2ccc(-c3nc(N)sc3C)cc2)ncn1` [compound 311, {6-[4-(2-Amino-5-methyl-thiazol-4-yl)-phenyl]-pyrimidin-4-yl}-[2-(4-methoxy-2-methyl-indol-1-yl)-ethyl]-amine], for which the IC50 in experiment [1] is 4 nM; in experiment [2] it was 232 nM.

In the case of `COc1cc(F)cc2c1cc(C)n2CCNc1cc(-c2ccc(-c3noc(=O)[nH]3)cc2)ncn1` [compound 312, 3-(4-{6-[2-(6-Fluoro-4-methoxy-2-methyl-indol-1-yl)-ethylamino]-pyrimidin-4-yl}-phenyl)-4H-[1,2,4]oxadiazol-5-one], the values for the IC50 in experiment [1] and in experiment [2] were 44 nM and 85 nM, respectively.

With `COc1ccc(F)c2c1cc(C)n2CCNc1cc(-c2ccc(-c3noc(=O)[nH]3)cc2)ncn1` [compound 313, 3-(4-{6-[2-(7-Fluoro-4-methoxy-2-methyl-indol-1-yl)-ethylamino]-pyrimidin-4-yl}-phenyl)-4H-[1,2,4]oxadiazol-5-one], the IC50 is 7 nM in experiment [1] and 110 nM in experiment [2].

With `CCCN1Cc2cc(-c3cc(NCCn4c(C)cc5c(OC)cccc54)ncn3)ccc2C1=O` [compound 315, 5-{6-[2-(4-Methoxy-2-methyl-indol-1-yl)-ethylamino]-pyrimidin-4-yl}-2-propyl-2,3-dihydro-isoindol-1-one], the IC50 is 46 nM in experiment [1] and 268 nM in experiment [2].

With `Cc1ccc(F)c2c1cc(C)n2CCNc1cc(-c2ccc(N3CCCS3(=O)=O)cc2)ncn1` [compound 316], the values for the IC50 in experiment [1] and in experiment [2] were 245 nM and 906 nM, respectively.

For `COc1cc(F)cc2c1cc(C)n2CCNc1cc(-c2ccc(N3CCCC3=O)cc2)ncn1` [compound 317], the IC50 in experiment [1] turned out to be 320 nM; in experiment [2], 873 nM.

In the case of `COc1ccc(F)c2c1cc(C)n2CCNc1cc(-c2ccc(N3CCCC3=O)cc2)ncn1` [compound 318], the IC50 stood at 338 nM in experiment [1] and 894 nM in experiment [2].

Take `CCN1Cc2cc(-c3cc(NCCn4c(C)cc5c(OC)ccc(F)c54)ncn3)ccc2C1=O` [compound 320]: the IC50 in experiment [1] came to 68 nM; in experiment [2] it was 345 nM.

`COc1ccc(F)c2c1cc(C)n2CCNc1cc(-c2ccc(-c3csc(C)n3)cc2)ncn1` [compound 321]: the results for the IC50 in experiment [1] and in experiment [2] were 72 nM and 439 nM, respectively.

Consider `COc1ccc(F)c2c1cc(C)n2CCNc1cc(-c2ccc(C(=O)O)c3[nH]ccc23)ncn1` [compound 323, 4-{6-[2-(7-Fluoro-4-methoxy-2-methyl-indol-1-yl)-ethylamino]-pyrimidin-4-yl}-1H-indole-7-carboxylic acid], for which the values for the IC50 in experiment [1] and in experiment [2] were 18 nM and 708 nM, respectively.

Consider `CNc1nnc(-c2ccc(-c3cc(NCCn4c(C)cc5c(C)ccc(F)c54)ncn3)cc2)s1` [compound 324, [2-(7-Fluoro-2,4-dimethyl-indol-1-yl)-ethyl]-{6-[4-(5-methylamino-[1,3,4]thiadiazol-2-yl)-phenyl]-pyrimidin-4-yl}-amine], for which the IC50 was determined as 4 nM in experiment [1] and 23 nM in experiment [2].

As for `COc1ccc(F)c2c1cc(C)n2CCNc1cc(-c2ccc3c(c2)CCO3)ncn1` [compound 325], the IC50 in experiment [1] amounted to 159 nM; in experiment [2] it was 968 nM.

In the case of `CCc1cccc2c1cc(C)n2CCNc1cc(-c2ccc(C(=O)O)c(CC(C)C)c2)ncn1` [compound 327], the IC50 is 482 nM in experiment [1] and 629 nM in experiment [2].

Turning to `Cc1ccc(C)c2c1cc(C)n2CCNc1cc(-c2ccc(C(=O)O)c(CC(C)C)c2)ncn1` [compound 328, 2-Isobutyl-4-{6-[2-(2,4,7-trimethyl-indol-1-yl)-ethylamino]-pyrimidin-4-yl}-benzoic acid], the IC50 was 62 nM in experiment [1] and 570 nM in experiment [2].

Consider `Cc1cccc2c1cc(C)n2CCNc1cc(-c2ccc(C(=O)O)c(CCC(C)C)c2)ncn1` [compound 329, 4-{6-[2-(2,4-Dimethyl-indol-1-yl)-ethylamino]-pyrimidin-4-yl}-2-(3-methyl-butyl)-benzoic acid], for which the IC50 in experiment [1] was 27 nM; in experiment [2], 653 nM.

On to `CSc1cc(-c2cc(NCCn3c(C)cc4c(C)c(F)cc(Cl)c43)ncn2)cc(F)c1C(=O)O` [compound 330], for which the IC50 in experiment [1] was 102 nM; in experiment [2], 667 nM.

With `CSc1cc(-c2cc(NCCn3c(C)cc4c(C)c(F)cc(Cl)c43)ncn2)cc(Cl)c1C(=O)O` [compound 331], the IC50 is 98 nM in experiment [1] and 829 nM in experiment [2].

As for `Cc1cc2c(F)ccc(F)c2n1CCNc1cc(-c2ccc(C(=O)O)c(CC(C)C)c2)ncn1` [compound 332, 4-{6-[2-(4,7-Difluoro-2-methyl-indol-1-yl)-ethylamino]-pyrimidin-4-yl}-2-isobutyl-benzoic acid], the results for the IC50 in experiment [1] and in experiment [2] were 5 nM and 588 nM, respectively.

Take `Cc1cc2cc(F)cc(F)c2n1CCNc1cc(-c2ccc(C(=O)O)c(CC(C)C)c2)ncn1` [compound 333, 4-{6-[2-(5,7-Difluoro-2-methyl-indol-1-yl)-ethylamino]-pyrimidin-4-yl}-2-isobutyl-benzoic acid]: the IC50 in experiment [1] turned out to be 15 nM; in experiment [2] it was 483 nM.
